This note sets out measurements from US9822130B2, “Triazolo-pyrazinyl derivatives useful as soluble guanylate cyclase activators” (Merck Sharp & Dohme Corp., priority 2014, dated 2017).

Each structure is given as a SMILES string.

Data set [1] addresses T1, sGC α1/β1 heterodimer stably expressed in CHO-K1 cell line (CHO-K1/sGC) (Homo sapiens, UniProt Q02108+Q02153).
T1 construct: expressed in transfected cells
T1 sequence (Q02108 1-690): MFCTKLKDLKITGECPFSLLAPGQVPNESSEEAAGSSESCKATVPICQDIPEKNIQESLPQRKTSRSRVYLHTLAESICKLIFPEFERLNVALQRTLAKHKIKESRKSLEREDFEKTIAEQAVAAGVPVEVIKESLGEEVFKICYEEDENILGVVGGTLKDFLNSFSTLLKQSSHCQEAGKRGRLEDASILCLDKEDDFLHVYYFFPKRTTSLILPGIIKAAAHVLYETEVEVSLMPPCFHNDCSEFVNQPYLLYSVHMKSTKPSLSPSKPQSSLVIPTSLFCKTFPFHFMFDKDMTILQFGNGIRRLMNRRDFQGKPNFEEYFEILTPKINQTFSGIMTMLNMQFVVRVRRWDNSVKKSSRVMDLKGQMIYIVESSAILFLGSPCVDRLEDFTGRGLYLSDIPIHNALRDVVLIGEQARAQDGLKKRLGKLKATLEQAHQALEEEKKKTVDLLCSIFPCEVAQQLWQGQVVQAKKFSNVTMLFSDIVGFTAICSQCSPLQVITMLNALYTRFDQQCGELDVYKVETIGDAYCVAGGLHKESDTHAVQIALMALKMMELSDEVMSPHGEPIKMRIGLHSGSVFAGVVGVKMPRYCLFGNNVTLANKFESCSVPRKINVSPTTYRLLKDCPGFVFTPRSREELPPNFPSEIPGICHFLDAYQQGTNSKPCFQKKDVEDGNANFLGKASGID
T1 sequence (Q02153 1-619): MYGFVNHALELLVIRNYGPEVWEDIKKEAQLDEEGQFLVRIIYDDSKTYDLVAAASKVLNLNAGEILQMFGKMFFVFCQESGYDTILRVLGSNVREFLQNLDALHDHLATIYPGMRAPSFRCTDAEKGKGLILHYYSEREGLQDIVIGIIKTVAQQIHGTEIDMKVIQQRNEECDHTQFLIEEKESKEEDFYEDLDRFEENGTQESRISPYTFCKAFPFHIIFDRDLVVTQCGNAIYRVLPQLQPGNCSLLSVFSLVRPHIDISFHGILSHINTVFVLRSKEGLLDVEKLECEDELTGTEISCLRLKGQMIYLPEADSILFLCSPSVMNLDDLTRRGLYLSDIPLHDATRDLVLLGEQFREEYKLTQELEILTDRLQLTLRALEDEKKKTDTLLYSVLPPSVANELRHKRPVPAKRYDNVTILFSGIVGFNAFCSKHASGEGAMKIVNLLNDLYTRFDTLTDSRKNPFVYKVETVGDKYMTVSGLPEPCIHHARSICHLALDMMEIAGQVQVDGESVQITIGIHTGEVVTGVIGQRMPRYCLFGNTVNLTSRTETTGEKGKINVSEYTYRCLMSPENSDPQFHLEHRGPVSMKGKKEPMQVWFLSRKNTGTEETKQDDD
Nature of the data set: Cell-based sGC Functional Assay (CASA Assay), cGMP generation. To be noted: CHO-K1/sGC cells, 1 hr at 37° C., cGMP by HTRF, 4P fit; presence or absence of 1 μM DETA-NO not given; read-out: IP (nM) (inflection point). A digest of the protocol:
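Readout is HTRF cGMP in lysates, normalised to the maximal response of reference sGC activator Compound A (100%), with a 4P fit giving IP and fold induction. Cells were CHO-K1/sGC (human α1/β1) in EBSS buffer with IBMX, incubated 1 hr at 37° C with compound. Run with and without 1 μM DETA-NO; final DMSO 2.5%.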
(In general: TR-FRET usually uses a lanthanide donor and a delayed reading to cut background.)

Data set [2] in a line: IV Cassette PK Assay in rats. To be noted: rat, male Wistar-Han rats, plasma, LC-MS/MS, read-out: Cassette PK T1/2 (converted). Format: in vivo. The procedure:
The results were obtained using the following the procedure:
Adult male Wistar-Han rats were fasted overnight and administered a cassette IV dose of mixture of several compounds via a previously implanted catheter in the femoral vein. Animals were allowed access to food 4 h post dose. Blood samples were collected into EDTA-containing tubes at the following time points: 0.03, 0.13, 0.25, 0.5, 1, 2, 4, 8 h post-dose. Blood samples were stored on ice until plasma was harvested by centrifugation. Plasma was transferred to a 96-well plate and stored at −20° C. until analysis. Concentrations of each compound in rat plasma were determined by LC-MS/MS following protein precipitation.

With `Nc1nc(-c2cn3ncnc3c(CCCC(F)(F)F)n2)nc2c1C(c1ccc(C(F)F)cn1)(C1CC1)C(=O)N2` (racemic) [Example 44B, 4-amino-5-cyclopropyl-5-(5-(difluoromethyl)pyridin-2-yl)-2-(8-(4,4,4-trifluorobutyl)-[1,2,4]triazolo[1,5-a]pyrazin-6-yl)-5H-pyrrolo[2,3-d]pyrimidin-6(7H)-one], the EC50 in data set [1] came to 111 nM. Besides, the half-life in data set [2] is 3.94 h. The like results for `C[C@@]1(c2ccc(F)cc2)C(=O)Nc2nc(-c3cn4ncnc4c(CCC(F)(F)C(F)(F)F)n3)nc(N)c21` [Example 1A, (S)-4-Amino-5-(4-fluorophenyl)-5-methyl-2-(8-(3,3,4,4,4-pentafluorobutyl)-[1,2,4]triazolo[1,5-a]pyrazin-6-yl)-5H-pyrrolo[2,3-d]pyrimidin-6(7H)-one] were, in that order, 187 nM and 3.35 h.

`CC1(c2ccc(F)cn2)C(=O)Nc2nc(-c3cn4ncnc4c(CCC(F)(F)C(F)(F)F)n3)nc(N)c21` (stereo not shown) [Example 4B, 4-amino-5-(5-fluoropyridin-2-yl)-5-methyl-2-(8-(3,3,4,4,4-pentafluorobutyl)-[1,2,4]triazolo[1,5-a]pyrazin-6-yl)-5H-pyrrolo[2,3-d]pyrimidin-6(7H)-one]: the EC50 in data set [1] amounted to 117 nM. The half-life in data set [2] was 2.97 h. On to `CC1(c2ccc(F)cc2)C(=O)Nc2nc(-c3cn4ccnc4c(CCC(F)(F)C(F)(F)F)n3)nc(N)c21` (stereo not shown) [reference compound], for which the half-life in data set [2] is 1.04 h.
